Results from US9096591B2, “Tetracyclic compounds” (Medivation Technologies, Inc., priority 2007, dated 2015).

Legend:
[1] = molecular target: T1, human recombinant adrenergic α1D receptor (Homo sapiens, UniProt P25100); test: Adrenergic α1D radioligand binding ([3H]Prozosin); design: Inhibition of ligand binding, Adren. alpha1D: concentration or dose not given beside the values; details: percent inhibition of specific binding
T1 construct: expressed in transfected cells; host or cells: HEK-293 cells
T1 sequence (P25100 1-572): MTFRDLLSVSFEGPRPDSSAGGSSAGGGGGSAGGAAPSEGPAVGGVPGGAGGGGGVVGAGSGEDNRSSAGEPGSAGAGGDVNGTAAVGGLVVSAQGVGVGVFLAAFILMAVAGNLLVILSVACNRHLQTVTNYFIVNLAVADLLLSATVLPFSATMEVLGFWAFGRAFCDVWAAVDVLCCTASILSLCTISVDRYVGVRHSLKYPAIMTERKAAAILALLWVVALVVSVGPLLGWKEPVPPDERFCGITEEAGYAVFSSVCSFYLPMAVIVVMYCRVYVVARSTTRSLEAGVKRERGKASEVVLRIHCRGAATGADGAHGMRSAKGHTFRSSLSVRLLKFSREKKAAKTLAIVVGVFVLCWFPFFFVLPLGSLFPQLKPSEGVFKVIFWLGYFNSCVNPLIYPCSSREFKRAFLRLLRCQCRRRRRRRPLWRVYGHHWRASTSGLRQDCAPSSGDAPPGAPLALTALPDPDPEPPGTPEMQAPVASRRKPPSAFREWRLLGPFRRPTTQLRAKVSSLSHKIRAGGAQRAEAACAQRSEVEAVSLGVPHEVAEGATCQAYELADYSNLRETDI
Procedure: Compounds of invention were incubated with 0.6 nM [^3H]Prozosin for 60 minutes at 25° C. Non-specific binding was estimated in the presence of 10 μM phentolamine. Receptor proteins were filtered and washed, the filters were then counted to determine [^3H]Prozosin specifically bound. […] Biochemical assay results are presented as the percent inhibition of specific binding in Table 6.

[2] = molecular target: T2, human recombinant serotonin (5-Hydroxytryptamine) 5-HT6 receptor (Homo sapiens, UniProt P50406); test: Serotonin 5-HT6 radioligand binding ([3H]LSD); design: Inhibition of ligand binding, Ser. 5-HT6: concentration or dose not given beside the values; details: percent inhibition of specific binding
T2 construct: expressed in transfected cells; host or cells: human HeLa cells
T2 sequence (P50406 whole entry): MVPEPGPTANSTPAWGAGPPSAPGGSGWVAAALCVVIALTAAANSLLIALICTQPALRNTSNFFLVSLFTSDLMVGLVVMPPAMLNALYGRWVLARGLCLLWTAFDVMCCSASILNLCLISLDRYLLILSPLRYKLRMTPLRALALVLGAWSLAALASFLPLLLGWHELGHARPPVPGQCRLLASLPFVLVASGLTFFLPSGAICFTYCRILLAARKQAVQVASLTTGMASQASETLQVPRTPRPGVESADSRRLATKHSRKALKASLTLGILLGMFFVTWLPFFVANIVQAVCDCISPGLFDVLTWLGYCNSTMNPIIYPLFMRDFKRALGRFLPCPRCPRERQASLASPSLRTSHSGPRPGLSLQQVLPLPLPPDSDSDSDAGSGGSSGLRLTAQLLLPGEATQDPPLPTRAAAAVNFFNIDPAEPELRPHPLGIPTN
From the text: Receptor proteins were filtered and washed, the filters were then counted to determine [3H]LSD specifically bound. […] Biochemical assay results are presented as the percent inhibition of specific binding in Table 6.

[3] = molecular target: T3, human recombinant serotonin (5-Hydroxytryptamine) 5-HT2C receptor (Homo sapiens, UniProt P28335); test: Serotonin 5-HT2C radioligand binding ([3H]Mesulergine); design: Inhibition of ligand binding, Ser. 5-HT2C: concentration or dose not given beside the values; details: percent inhibition of specific binding
T3 construct: expressed in transfected cells; host or cells: CHO-K1 cells
T3 sequence (P28335 33-458): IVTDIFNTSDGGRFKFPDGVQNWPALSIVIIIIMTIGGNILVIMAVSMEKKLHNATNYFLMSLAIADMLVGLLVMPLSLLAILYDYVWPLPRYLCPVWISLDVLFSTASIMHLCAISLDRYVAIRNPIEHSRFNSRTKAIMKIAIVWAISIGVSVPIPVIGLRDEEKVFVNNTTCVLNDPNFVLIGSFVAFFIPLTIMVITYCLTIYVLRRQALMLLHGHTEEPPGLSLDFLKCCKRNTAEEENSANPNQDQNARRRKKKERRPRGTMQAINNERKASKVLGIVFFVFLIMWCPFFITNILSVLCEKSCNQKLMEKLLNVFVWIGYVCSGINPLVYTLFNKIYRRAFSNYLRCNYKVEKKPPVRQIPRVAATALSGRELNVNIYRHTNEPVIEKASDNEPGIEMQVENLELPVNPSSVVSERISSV
Procedure: (§1) Compounds of the invention were incubated with 1 nM [^3H]Mesulergine for 60 minutes at 25° C. Non-specific binding was estimated in the presence of 1 μM Mianserin. Receptor proteins were filtered and washed, the filters were then counted to determine [^3H]Mesulergine specifically bound. […] Biochemical assay results are presented as the percent inhibition of specific binding in Table 6.

[4] = molecular target: T4, human recombinant dopamine D2L receptor (Homo sapiens, UniProt P14416); test: Dopamine D2L radioligand binding ([3H]Spiperone); details: percent inhibition of specific binding
T4 construct: expressed in transfected cells; host or cells: CHO cells
T4 sequence (P14416 whole entry): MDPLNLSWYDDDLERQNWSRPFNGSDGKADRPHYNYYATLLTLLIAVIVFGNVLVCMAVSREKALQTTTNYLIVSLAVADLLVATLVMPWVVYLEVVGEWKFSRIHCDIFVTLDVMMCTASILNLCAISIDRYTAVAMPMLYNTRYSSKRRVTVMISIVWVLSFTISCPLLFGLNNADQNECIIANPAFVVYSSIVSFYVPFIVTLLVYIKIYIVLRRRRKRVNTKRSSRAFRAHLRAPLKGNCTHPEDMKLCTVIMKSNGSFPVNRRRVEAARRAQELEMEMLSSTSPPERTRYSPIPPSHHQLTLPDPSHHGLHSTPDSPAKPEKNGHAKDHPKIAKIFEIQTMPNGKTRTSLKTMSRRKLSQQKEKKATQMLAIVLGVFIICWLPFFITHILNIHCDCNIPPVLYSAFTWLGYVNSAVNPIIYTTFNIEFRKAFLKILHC
Procedure: Non-specific binding was estimated in the presence of 10 μM Haloperidol. Receptor proteins were filtered and washed, the filters were then counted to determine [^3H]Spiperone specifically bound. […] Biochemical assay results are presented as the percent inhibition of specific binding in Table 6.

[5] = molecular target: T5, human recombinant serotonin (5-Hydroxytryptamine) 5-HT2A receptor (Homo sapiens, UniProt P28223); test: Serotonin 5-HT2A radioligand binding ([3H]Ketanserin); design: Inhibition of ligand binding, Ser. 5-HT2A: concentration or dose not given beside the values; details: percent inhibition of specific binding
T5 construct: expressed in transfected cells; host or cells: CHO-K1 cells
T5 sequence (P28223 whole entry): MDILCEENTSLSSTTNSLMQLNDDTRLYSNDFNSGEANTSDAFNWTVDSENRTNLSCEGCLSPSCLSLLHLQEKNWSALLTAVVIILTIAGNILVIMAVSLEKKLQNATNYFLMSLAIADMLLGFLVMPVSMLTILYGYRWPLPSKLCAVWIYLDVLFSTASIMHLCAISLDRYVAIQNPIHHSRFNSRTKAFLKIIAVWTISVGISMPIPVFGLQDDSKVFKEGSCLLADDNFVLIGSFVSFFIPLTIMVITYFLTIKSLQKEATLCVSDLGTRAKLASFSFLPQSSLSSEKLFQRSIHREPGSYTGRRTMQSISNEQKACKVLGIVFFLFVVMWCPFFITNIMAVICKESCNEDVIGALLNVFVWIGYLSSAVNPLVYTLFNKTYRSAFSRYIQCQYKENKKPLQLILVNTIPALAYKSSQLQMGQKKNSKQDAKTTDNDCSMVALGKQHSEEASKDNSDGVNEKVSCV
Procedure: as §1, with “with 0.5” for “with 1”, “nM [^3H]Ketanserin” for “nM [^3H]Mesulergine”, “determine [^3H]Ketanserin” for “determine [^3H]Mesulergine”

[6] = system: synaptosomes of cortex of rat brain; test: Glutamate-induced 45Ca2+ uptake into synaptosomes; assay type: biochemical, Wistar rats; details: for % Ca of control (control-100%), glutamate-induced 45Ca2+ uptake into synaptosomes: rat cortex synaptosomes
Method in brief: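 Cortical synaptosomes (P2 fraction) from 9-10-day-old Wistar rats, ~1.5-2 mg/ml protein in HEPES-buffered saline with glucose, pH 7.4, stimulated 5 min with 200 μM glutamate at 37° C. 45Ca2+ uptake measured by filtration and scintillation counting; specific uptake with compound expressed as percentage of glutamate-induced uptake, each corrected for unstimulated uptake.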

## CN1CCc2c(c3cc(Cl)ccc3n2CCc2ccc(C(F)(F)F)nc2)C1 [Compound 250]
[1]
  Inhibition of ligand binding, Adren. alpha1D: 93%
[2]
  Inhibition of ligand binding, Ser. 5-HT6: 84%
[3]
  Inhibition of ligand binding, Ser. 5-HT2C: 79%
[4]
  Inhibition of ligand binding, Dop. D2L: 21%
[5]
  Inhibition of ligand binding, Ser. 5-HT2A: 101%

## Cc1ccc2c(c1)c1c(n2CCc2ccc(C)nc2)CCN(C)C1 [Dimebon, dimebon, reference compound]
[1]
  Inhibition of ligand binding, Adren. alpha1D: 91%
[2]
  Inhibition of ligand binding, Ser. 5-HT6: 95%
[3]
  Inhibition of ligand binding, Ser. 5-HT2C: 86%
[6]
  concentration at which glutamate-induced 45Ca2+ uptake into synaptosomes was inhibited: 0.25 to 10 µM
[6]; 1 μM (maximal inhibition)
  inhibition of glutamate-induced 45Ca2+ uptake into synaptosomes: 40%
[6]; C 0.1 μM
  glutamate-induced 45Ca2+ uptake into synaptosomes of rat cortex, % Ca of control (control-100%): 120 ± 3.3%
[6]; C 0.1 μM, listed as dimebon
  glutamate-induced 45Ca2+ uptake into synaptosomes of rat cortex, % Ca of control (control-100%): 120.4%
[6]; C 0.5 μM
  glutamate-induced 45Ca2+ uptake into synaptosomes of rat cortex, % Ca of control (control-100%): 64.4 ± 12.4%
[6]; C 1.0 μM
  glutamate-induced 45Ca2+ uptake into synaptosomes of rat cortex, % Ca of control (control-100%): 61.3 ± 8.1%
[6]; C 5.0 μM
  glutamate-induced 45Ca2+ uptake into synaptosomes of rat cortex, % Ca of control (control-100%): 83.2 ± 4.1%
[6]; C 10 μM
  glutamate-induced 45Ca2+ uptake into synaptosomes of rat cortex, % Ca of control (control-100%): 89.3 ± 1.2%
[6]; C 25 μM
  glutamate-induced 45Ca2+ uptake into synaptosomes of rat cortex, % Ca of control (control-100%): 97.2 ± 8.5%
[6]; C 50 μM
  glutamate-induced 45Ca2+ uptake into synaptosomes of rat cortex, % Ca of control (control-100%): 98.7 ± 8.8%
[6]; C 100 μM
  glutamate-induced 45Ca2+ uptake into synaptosomes of rat cortex, % Ca of control (control-100%): 132 ± 2.9%
[6]; C 100 μM, listed as dimebon
  glutamate-induced 45Ca2+ uptake into synaptosomes of rat cortex, % Ca of control (control-100%): 132%
[4]
  Inhibition of ligand binding, Dop. D2L: 41%
[5]
  Inhibition of ligand binding, Ser. 5-HT2A: 82%

## CN1CCc2c(c3cc(Cl)ccc3n2CCc2nc(-c3ccccc3)cs2)C1 [Compound C1-8]
[6]; 1-5 μM
  inhibition of glutamate-induced 45Ca2+ uptake into synaptosomes: ~14%
[6]; 50-100 μM
  glutamate-induced 45Ca2+ uptake into synaptosomes of rat cortex, % of control: 122%
[6]; compound 0.1 μM
  % Ca of control (control-100%), glutamate-induced 45Ca2+ uptake into synaptosomes: 99.2 ± 1.4%
[6]; compound 0.5 μM
  % Ca of control (control-100%), glutamate-induced 45Ca2+ uptake into synaptosomes: 96.7 ± 2.4%
[6]; compound 1 μM
  % Ca of control (control-100%), glutamate-induced 45Ca2+ uptake into synaptosomes: 86.1 ± 0.1%
[6]; compound 5 μM
  % Ca of control (control-100%), glutamate-induced 45Ca2+ uptake into synaptosomes: 87.7 ± 2.7%
[6]; compound 10 μM
  % Ca of control (control-100%), glutamate-induced 45Ca2+ uptake into synaptosomes: 99.3 ± 3.0%
[6]; compound 50 μM
  % Ca of control (control-100%), glutamate-induced 45Ca2+ uptake into synaptosomes: 122.4 ± 1.6%
[6]; compound 100 μM
  % Ca of control (control-100%), glutamate-induced 45Ca2+ uptake into synaptosomes: 121.7 ± 13.9%
